Experimental data reported in patent publication US20230250054A1, “SELECTIVE HISTONE DEACETYLASE 6 INHIBITORS” (The Board of Trustees of the University of Illinois, priority 2020, published 2023).

Legend:
HDAC1 = target: T1, HDAC1 (Homo sapiens, UniProt Q13547); test: Fluorescence-based HDAC inhibition assay, HDAC1; format: biochemical; settings: ratio HDAC1 IC50 / HDAC6 IC50, Table 2
T1 construct: made in house; host or cells: HEK293/T17 cells, transient transfection
Protocol: (§1) Briefly, transiently transfected cells were harvested three days post-transfection and the cell pellets resuspended in a lysis buffer (50 mM Tris, 150 mM NaCl, 10 mM KCl, 2 mM MgCl2, 10% glycerol, 0.2% NP-40, 2 Units/mL benzonase, pH 8) supplemented with a cocktail of protease inhibitors (Roche, Basel, Switzerland). Cells were lysed by sonication (30 W; 3×20 s) on ice, and the cell lysate cleared by centrifugation at 40 000×g for 30 min at 4° C. […] Purified proteins were concentrated to 1 mg/mL, aliquoted, flash-frozen in liquid nitrogen, and stored at −80° C. until further use.
(§2) Briefly, individual HDACs were preincubated with dilution series of tested inhibitors (0-100 μM) in a 384-well plate in the total volume of 40 μL for 10 min at 37° C. in a reaction buffer comprising 50 mM HEPES, 140 mM NaCl, 10 mM KCl, 1 mM TCEP, 0.1% BSA, pH 7.4. Deacetylation reaction was started by the addition of 10 μL of a 10 μM substrate into the HDAC/inhibitor mixture. Following the 30 min incubation at 37° C., the reaction was terminated by the addition of 25 μL of the trypsin solution (4 mg/mL). Fluorescence development by trypsin was carried out at 37° C. for 15 and 60 min for Ac-GAK(Ac)-AMC and Boc-Lys(TFA)-AMC substrate, respectively. […] Non-linear regression analysis was employed to calculate IC50 values using the GraphPad Prism software. […] Reactions without the enzyme or the inhibitor were used to define 0% and 100% of the HDAC activity, respectively.

HDAC6 = target: T2, HDAC6 (Homo sapiens, UniProt Q9UBN7); test: Fluorescence-based HDAC inhibition assay, HDAC6; format: biochemical; settings: Table 2
T2 construct: our assay that uses approximately 0.6 nM concentration of the full-length enzyme; made in house; host or cells: HEK293/T17 cells, transient transfection
T2 sequence (Q9UBN7 1-1215): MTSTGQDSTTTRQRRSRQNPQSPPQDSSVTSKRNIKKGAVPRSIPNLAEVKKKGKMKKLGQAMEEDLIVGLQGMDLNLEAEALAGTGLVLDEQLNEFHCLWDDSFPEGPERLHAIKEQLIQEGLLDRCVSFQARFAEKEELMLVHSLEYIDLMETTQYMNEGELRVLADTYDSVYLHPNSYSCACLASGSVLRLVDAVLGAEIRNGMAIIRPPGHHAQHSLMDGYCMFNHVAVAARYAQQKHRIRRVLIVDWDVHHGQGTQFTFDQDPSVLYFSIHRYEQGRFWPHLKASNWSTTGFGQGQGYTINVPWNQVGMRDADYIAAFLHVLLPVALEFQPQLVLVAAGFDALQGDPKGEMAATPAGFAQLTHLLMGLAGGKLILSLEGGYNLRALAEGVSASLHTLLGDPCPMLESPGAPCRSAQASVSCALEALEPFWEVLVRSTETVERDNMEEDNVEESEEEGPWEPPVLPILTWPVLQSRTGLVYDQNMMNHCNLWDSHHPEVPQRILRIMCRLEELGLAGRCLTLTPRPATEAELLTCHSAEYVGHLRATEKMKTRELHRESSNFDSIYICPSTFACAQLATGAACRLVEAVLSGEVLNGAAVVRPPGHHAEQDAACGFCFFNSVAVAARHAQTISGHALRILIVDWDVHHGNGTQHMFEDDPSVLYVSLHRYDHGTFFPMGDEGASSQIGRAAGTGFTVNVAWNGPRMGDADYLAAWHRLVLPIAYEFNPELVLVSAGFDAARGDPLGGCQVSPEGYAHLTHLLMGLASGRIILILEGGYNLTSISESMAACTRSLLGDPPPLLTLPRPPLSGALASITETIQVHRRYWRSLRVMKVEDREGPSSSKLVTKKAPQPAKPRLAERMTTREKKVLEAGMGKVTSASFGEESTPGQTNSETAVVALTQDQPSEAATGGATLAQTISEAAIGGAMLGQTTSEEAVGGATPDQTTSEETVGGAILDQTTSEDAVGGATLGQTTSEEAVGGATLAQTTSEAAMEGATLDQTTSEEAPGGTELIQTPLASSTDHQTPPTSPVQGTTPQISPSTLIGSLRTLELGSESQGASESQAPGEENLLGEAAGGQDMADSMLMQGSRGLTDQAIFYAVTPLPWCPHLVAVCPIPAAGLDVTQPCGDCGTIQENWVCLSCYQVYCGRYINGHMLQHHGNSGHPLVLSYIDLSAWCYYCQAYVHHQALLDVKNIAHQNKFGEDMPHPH
Protocol: as §1, §2

T1 sequence (Q13547 whole entry): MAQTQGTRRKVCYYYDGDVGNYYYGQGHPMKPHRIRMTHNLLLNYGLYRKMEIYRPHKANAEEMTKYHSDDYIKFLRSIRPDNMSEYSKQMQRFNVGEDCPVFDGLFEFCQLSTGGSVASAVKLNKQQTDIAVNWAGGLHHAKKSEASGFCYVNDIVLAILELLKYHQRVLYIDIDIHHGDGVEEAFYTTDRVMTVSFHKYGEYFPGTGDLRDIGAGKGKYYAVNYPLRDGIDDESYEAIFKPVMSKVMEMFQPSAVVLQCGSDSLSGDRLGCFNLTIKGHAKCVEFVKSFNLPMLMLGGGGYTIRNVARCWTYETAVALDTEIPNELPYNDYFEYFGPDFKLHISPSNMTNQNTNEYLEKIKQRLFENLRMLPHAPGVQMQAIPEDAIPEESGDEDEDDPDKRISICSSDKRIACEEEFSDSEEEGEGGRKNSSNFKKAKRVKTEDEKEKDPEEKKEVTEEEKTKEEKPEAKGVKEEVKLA

Row | Compound | HDAC1/6 (HDAC1) | IC50 (HDAC6) [µM]
1 | O=C(CCCCCCC(=O)Nc1ccccc1)NO [Vorinostat, reference compound] | 5 | 
2 | NCc1ccc(NC(=O)N(CCCCO)Cc2ccc(C(N)=O)cc2)cc1 [Compound 6e, 4-((3-(4-(Aminomethyl)phenyl)-1-(4-hydroxybutyl)ureido)methyl)benzamide] |  | > 30
3 | NCc1ccc(NC(=O)N(CCCCO)Cc2ccc(B(O)O)cc2)cc1 [Compound 6f, (4-((3-(4-(Aminomethyl)phenyl)-1-(4-hydroxybutyl)ureido)methyl)phenyl)boronic acid] |  | > 30
4 | NCc1ccc(NC(=O)N(CCCCO)Cc2ccc(C(=O)O)cc2)cc1 [Compound 6d, 4-((3-(4-(Aminomethyl)phenyl)-1-(4-hydroxybutyl)ureido)methyl)benzoic acid] |  | 16.8
